Values after ≈ are worked out from the molar mass of the structure shown. Active and inactive are the calls of the source. The calls are words filed in the database; no cut-off is given here.
What was measured:
Streptococcus pneumoniae [1] = experiment: Potency index, ratio of MIC of CAM to MIC of compound for antibacterial activity against erythromycin-resistant Streptococcus pneumoniae AB11 expressing ermB and me/A genes; type: functional
Streptococcus pneumoniae [2] = experiment: Antibacterial activity against erythromycin-resistant Streptococcus pneumoniae B1 expressing ermB gene by standard broth microdilution method; type: functional
Streptococcus pneumoniae [3] = experiment: Potency index, ratio of MIC of AZM to MIC of compound for antibacterial activity against erythromycin-resistant Streptococcus pneumoniae AB11 expressing ermB and me/A genes; type: functional
Pseudomonas aeruginosa = experiment: Antibacterial activity against penicillin-susceptible Pseudomonas aeruginosa ATCC 27853 by standard broth microdilution method; type: functional
Streptococcus pneumoniae [4] = experiment: Antibacterial activity against erythromycin-resistant Streptococcus pneumoniae AB11 expressing ermB and me/A genes by standard broth microdilution method; type: functional
Staphylococcus aureus [5] = experiment: Antibacterial activity against methicillin-resistant Staphylococcus aureus ATCC 43300 by standard broth microdilution method; type: functional
Escherichia coli = experiment: Antibacterial activity against penicillin-susceptible Escherichia coli ATCC 25922 by standard broth microdilution method; type: functional
Streptococcus pyogenes [6] = experiment: Antibacterial activity against erythromycin resistant Streptococcus pyogenes R1 by standard broth microdilution method; type: functional
Staphylococcus aureus [7] = experiment: Antibacterial activity against erythromycin-susceptible Staphylococcus aureus ATCC 25923 by standard broth microdilution method; type: functional
Bacillus subtilis [8] = experiment: Antibacterial activity against penicillin-susceptible Bacillus subtilis ATCC 9372 by standard broth microdilution method; type: functional
Streptococcus pyogenes [9] = experiment: Potency index, ratio of MIC of CAM to MIC of compound for antibacterial activity against erythromycin resistant Streptococcus pyogenes R1; type: functional
Streptococcus pyogenes [10] = experiment: Potency index, ratio of MIC of AZM to MIC of compound for antibacterial activity against erythromycin resistant Streptococcus pyogenes R1; type: functional
Streptococcus pneumoniae [11] = experiment: Ratio of MBC for erythromycin-resistant Streptococcus pneumoniae AB11 expressing ermB and me/A genes to MIC for erythromycin-resistant Streptococcus pneumoniae AB11 expressing ermB and me/A genes; type: functional
Streptococcus pneumoniae [12] = experiment: Bactericidal activity against erythromycin-resistant Streptococcus pneumoniae AB11 expressing ermB and me/A genes; type: functional
Bacillus subtilis [13] = experiment: Ratio of MBC for penicillin-susceptible Bacillus subtilis ATCC 9372 to MIC for penicillin-susceptible Bacillus subtilis ATCC 9372; type: functional
Bacillus subtilis [14] = experiment: Bactericidal activity against penicillin-susceptible Bacillus subtilis ATCC 9372; type: functional
Streptococcus pneumoniae [15] = experiment: Bacteriostatic activity against erythromycin-resistant Streptococcus pneumoniae AB11 expressing ermB and me/A genes at 1 to 4 MIC incubated for 9 to 24 hrs by time-kill curve assay; type: functional, organism-based
Streptococcus pneumoniae [16] = experiment: Bactericidal activity against erythromycin-resistant Streptococcus pneumoniae AB11 expressing ermB and me/A genes at 1 to 4 times of MIC incubated for 9 hrs by time-kill curve assay; type: functional, organism-based
Staphylococcus aureus [17] = experiment: Potency index, ratio of MIC of CAM to MIC of compound for antibacterial activity against methicillin-resistant Staphylococcus aureus ATCC 43300; type: functional
Staphylococcus aureus [18] = experiment: Potency index, ratio of MIC of AZM to MIC of compound for antibacterial activity against methicillin-resistant Staphylococcus aureus ATCC 43300; type: functional

Row | SMILES | Ratio (Streptococcus pneumoniae [1]) | MIC (Streptococcus pneumoniae [2]) | Ratio (Streptococcus pneumoniae [3]) | MIC (Pseudomonas aeruginosa) | MIC (Streptococcus pneumoniae [4]) | MIC (Staphylococcus aureus [5]) | MIC (Escherichia coli) | MIC (Streptococcus pyogenes [6]) | MIC (Staphylococcus aureus [7]) | MIC (Bacillus subtilis [8]) | Ratio (Streptococcus pyogenes [9]) | Ratio (Streptococcus pyogenes [10]) | Ratio (Streptococcus pneumoniae [11]) | MBC (Streptococcus pneumoniae [12]) | Ratio (Bacillus subtilis [13]) | MBC (Bacillus subtilis [14]) | Activity (Streptococcus pneumoniae [15]) | Activity (Streptococcus pneumoniae [16]) | Ratio (Staphylococcus aureus [17]) | Ratio (Staphylococcus aureus [18])
1 | CC[C@H]1OC(=O)[C@H](C)C(=O)[C@H](C)[C@@H](O[C@H]2O[C@@H](C)C[C@@H](N(C)C)[C@@H]2O)[C@](C)(OC)C[C@@H](C)C(=O)[C@H](C)[C@@H](OC(=O)NCCCn2cc(-c3cccc(N)c3)nn2)[C@]1(C)O | 4 - 8 | 128 µg/mL (≈ 154 µM) | 8 - 16 | 128 µg/mL (≈ 154 µM) | 32 µg/mL (≈ 38.5 µM) | > 256 µg/mL | > 128 µg/mL | 128 µg/mL (≈ 154 µM) | 16 µg/mL (≈ 19.3 µM) | 4 µg/mL (≈ 4.81 µM) |  |  |  |  |  |  |  |  |  | 
2 | CC[C@H]1OC(=O)[C@H](C)C(=O)[C@H](C)[C@@H](O[C@H]2O[C@@H](C)C[C@@H](N(C)C)[C@@H]2O)[C@](C)(OC)C[C@@H](C)C(=O)[C@H](C)[C@@H](OC(=O)NCCCn2cc(-c3ccccc3OC)nn2)[C@]1(C)O | 4 - 8 | 256 µg/mL (≈ 303 µM) | 8 - 16 | 128 µg/mL (≈ 151 µM) | 32 µg/mL (≈ 37.8 µM) | > 256 µg/mL | > 128 µg/mL | 64 µg/mL (≈ 75.6 µM) | 8 µg/mL (≈ 9.46 µM) | 2 µg/mL (≈ 2.36 µM) |  |  |  |  |  |  |  |  |  | 
3 | CC[C@H]1OC(=O)[C@H](C)C(=O)[C@H](C)[C@@H](O[C@H]2O[C@@H](C)C[C@@H](N(C)C)[C@@H]2O)[C@](C)(OC)C[C@@H](C)C(=O)[C@H](C)[C@@H](OC(=O)NCCCn2cc(-c3cccc(Br)c3)nn2)[C@]1(C)O | 4 - 8 | 64 µg/mL (≈ 71.5 µM) | 8 - 16 | 128 µg/mL (≈ 143 µM) | 32 µg/mL (≈ 35.8 µM) | 128 µg/mL (≈ 143 µM) | > 128 µg/mL | 32 µg/mL (≈ 35.8 µM) | 8 µg/mL (≈ 8.94 µM) | 2 µg/mL (≈ 2.23 µM) | 8 - 16 | 8 - 16 |  |  |  |  |  |  |  | 
4 | CC[C@H]1OC(=O)[C@H](C)C(=O)[C@H](C)[C@@H](O[C@H]2O[C@@H](C)C[C@@H](N(C)C)[C@@H]2O)[C@](C)(OC)C[C@@H](C)C(=O)[C@H](C)[C@@H](OC(=O)NCCCn2cc(-c3ccc(C(C)(C)C)cc3)nn2)[C@]1(C)O |  | 64 µg/mL (≈ 73.4 µM) |  | 128 µg/mL (≈ 147 µM) | 64 µg/mL (≈ 73.4 µM) | 128 µg/mL (≈ 147 µM) | > 128 µg/mL | 32 µg/mL (≈ 36.7 µM) | 16 µg/mL (≈ 18.3 µM) | 16 µg/mL (≈ 18.3 µM) | 8 - 16 | 8 - 16 |  |  |  |  |  |  |  | 
5 | CC[C@H]1OC(=O)[C@H](C)C(=O)[C@H](C)[C@@H](O[C@H]2O[C@@H](C)C[C@@H](N(C)C)[C@@H]2O)[C@](C)(OC)C[C@@H](C)C(=O)[C@H](C)[C@@H](OC(=O)NCCn2cc(-c3ccc(-c4ccccc4)cc3)nn2)[C@]1(C)O |  | 128 µg/mL (≈ 146 µM) |  | 128 µg/mL (≈ 146 µM) | 64 µg/mL (≈ 72.9 µM) | 128 µg/mL (≈ 146 µM) | > 128 µg/mL | 32 µg/mL (≈ 36.4 µM) | 32 µg/mL (≈ 36.4 µM) | 4 µg/mL (≈ 4.56 µM) | 8 - 16 | 8 - 16 |  |  |  |  |  |  |  | 
6 | CC[C@H]1OC(=O)[C@H](C)[C@@H](O[C@H]2C[C@@](C)(OC)[C@@H](O)[C@H](C)O2)[C@H](C)[C@@H](O[C@@H]2O[C@H](C)C[C@H](N(C)C)[C@H]2O)[C@](C)(OC)C[C@@H](C)C(=O)[C@H](C)[C@@H](O)[C@]1(C)O [CLARITHROMYCIN] |  | > 256 µg/mL |  | 32 µg/mL (≈ 42.8 µM) | 128 µg/mL (≈ 171 µM) | > 256 µg/mL | > 128 µg/mL | 256 µg/mL (≈ 342 µM) | 0.25 µg/mL (≈ 0.334 µM) | 0.25 µg/mL (≈ 0.334 µM) |  |  | 16 | 256 µg/mL (≈ 342 µM) | 128 | 128 µg/mL (≈ 171 µM) |  |  |  | 
7 | CC[C@H]1OC(=O)[C@H](C)C(=O)[C@H](C)[C@@H](O[C@H]2O[C@@H](C)C[C@@H](N(C)C)[C@@H]2O)[C@](C)(OC)C[C@@H](C)C(=O)[C@H](C)[C@@H](OC(=O)NCCn2cc(-c3ccc(C(C)(C)C)cc3)nn2)[C@]1(C)O |  | 128 µg/mL (≈ 149 µM) |  | 128 µg/mL (≈ 149 µM) | 128 µg/mL (≈ 149 µM) | 256 µg/mL (≈ 298 µM) | > 128 µg/mL | 64 µg/mL (≈ 74.6 µM) | 32 µg/mL (≈ 37.3 µM) | 8 µg/mL (≈ 9.32 µM) |  |  |  |  |  |  |  |  |  | 
8 | CC[C@H]1OC(=O)[C@H](C)C(=O)[C@H](C)[C@@H](O[C@H]2O[C@@H](C)C[C@@H](N(C)C)[C@@H]2O)[C@](C)(OC)C[C@@H](C)C(=O)[C@H](C)[C@@H](OC(=O)NCCCn2cc(-c3ccc(Cl)cc3)nn2)[C@]1(C)O | 4 - 8 | 64 µg/mL (≈ 75.3 µM) | 8 - 16 | 128 µg/mL (≈ 151 µM) | 16 µg/mL (≈ 18.8 µM) | 128 µg/mL (≈ 151 µM) | > 128 µg/mL | 32 µg/mL (≈ 37.6 µM) | 4 µg/mL (≈ 4.7 µM) | 1 µg/mL (≈ 1.18 µM) | 8 - 16 | 8 - 16 | 1 | 128 µg/mL (≈ 151 µM) | 512 | 128 µg/mL (≈ 151 µM) | Dose-dependent effect | Active |  | 
9 | CCCCc1ccc(-c2cn(CCNC(=O)O[C@@H]3[C@@H](C)C(=O)[C@H](C)C[C@@](C)(OC)[C@H](O[C@H]4O[C@@H](C)C[C@@H](N(C)C)[C@@H]4O)[C@@H](C)C(=O)[C@@H](C)C(=O)O[C@H](CC)[C@@]3(C)O)nn2)cc1 |  | 128 µg/mL (≈ 149 µM) |  | 128 µg/mL (≈ 149 µM) | 64 µg/mL (≈ 74.6 µM) | 256 µg/mL (≈ 298 µM) | > 128 µg/mL | 32 µg/mL (≈ 37.3 µM) | 16 µg/mL (≈ 18.6 µM) | 4 µg/mL (≈ 4.66 µM) | 8 - 16 | 8 - 16 |  |  |  |  |  |  |  | 
10 | CC[C@H]1OC(=O)[C@H](C)C(=O)[C@H](C)[C@@H](O[C@H]2O[C@@H](C)C[C@@H](N(C)C)[C@@H]2O)[C@](C)(OC)C[C@@H](C)C(=O)[C@H](C)[C@@H](OC(=O)NCCn2cc(-c3cccc(Cl)c3)nn2)[C@]1(C)O |  | 128 µg/mL (≈ 153 µM) |  | 128 µg/mL (≈ 153 µM) | 128 µg/mL (≈ 153 µM) | 256 µg/mL (≈ 306 µM) | > 128 µg/mL | 64 µg/mL (≈ 76.5 µM) | 8 µg/mL (≈ 9.56 µM) | 4 µg/mL (≈ 4.78 µM) |  |  |  |  |  |  |  |  |  | 
11 | CC[C@H]1OC(=O)[C@H](C)C(=O)[C@H](C)[C@@H](O[C@H]2O[C@@H](C)C[C@@H](N(C)C)[C@@H]2O)[C@](C)(OC)C[C@@H](C)C(=O)[C@H](C)[C@@H](OC(=O)NCCn2cc(-c3ccc(Cl)cc3)nn2)[C@]1(C)O |  | 128 µg/mL (≈ 153 µM) |  | 128 µg/mL (≈ 153 µM) | 128 µg/mL (≈ 153 µM) | 256 µg/mL (≈ 306 µM) | > 128 µg/mL | 64 µg/mL (≈ 76.5 µM) | 8 µg/mL (≈ 9.56 µM) | 4 µg/mL (≈ 4.78 µM) |  |  |  |  |  |  |  |  |  | 
12 | CCCCc1ccc(-c2cn(CCCNC(=O)O[C@@H]3[C@@H](C)C(=O)[C@H](C)C[C@@](C)(OC)[C@H](O[C@H]4O[C@@H](C)C[C@@H](N(C)C)[C@@H]4O)[C@@H](C)C(=O)[C@@H](C)C(=O)O[C@H](CC)[C@@]3(C)O)nn2)cc1 | 4 - 8 | 32 µg/mL (≈ 36.7 µM) | 8 - 16 | 128 µg/mL (≈ 147 µM) | 32 µg/mL (≈ 36.7 µM) | 64 µg/mL (≈ 73.4 µM) | > 128 µg/mL | 16 µg/mL (≈ 18.3 µM) | 16 µg/mL (≈ 18.3 µM) | 2 µg/mL (≈ 2.29 µM) | 8 - 16 | 8 - 16 |  |  |  |  |  |  | >4 | >4
